Tests used:
[1] = relative permittivity at various frequencies (dimensionless); settings: 100 kPa, Liquid, Frequency=30 MHz, Parallel plate capacitor
[2] = 100 kPa, Liquid; for viscosity: Capillary tube (Ostwald / Ubbelohde) method; for mass density: Vibrating tube method
[3] = refractive index (Na D-line) (dimensionless); settings: 100 kPa, Liquid, Standard Abbe refractometry
[4] = refractive index (Na D-line) (dimensionless); xn = mol fraction of the nth substance listed; settings: 100 kPa, Liquid, Standard Abbe refractometry, x1 = 1
[5] = relative permittivity at various frequencies (dimensionless); xn = mol fraction of the nth substance listed; settings: 100 kPa, Liquid, Frequency=30 MHz, Parallel plate capacitor, x1 = 1
[6] = xn = mol fraction of the nth substance listed; settings: 100 kPa, Liquid, x1 = 1; for viscosity: Capillary tube (Ostwald / Ubbelohde) method; for mass density: Vibrating tube method

NC1CCCCC1 [cyclohexylamine]
Settings | mass density, [2] [kg/m3] | refractive index, [3] | relative permittivity, [1] | viscosity, [2] [mPa·s]
293.15 K | 866.86 | 1.45934 | 4.65 | 2.142
298.15 K | 862.315 | 1.45663 | 4.56 | 1.908
303.15 K | 857.774 | 1.45325 | 4.47 | 1.697

CO [methanol]
Settings | mass density, [2] [kg/m3] | refractive index, [3] | relative permittivity, [1] | viscosity, [2] [mPa·s]
293.15 K | 791.414 | 1.32866 | 33.6 | 0.585
298.15 K | 786.716 | 1.32682 | 32.62 | 0.545
303.15 K | 782.032 | 1.32444 | 31.67 | 0.508

CO [methanol] + NC1CCCCC1
Settings | mass density, [6] [kg/m3] | refractive index, [4] | relative permittivity, [5] | viscosity, [6] [mPa·s]
293.15 K | 791.414 | 1.32866 | 33.6 | 0.585
298.15 K | 786.716 | 1.32682 | 32.62 | 0.545
303.15 K | 782.032 | 1.32444 | 31.67 | 0.508

From the NIST ThermoML archive (doi:10.1016/j.tca.2016.03.002)
